US11046680B1, “Heteroaryl-substituted triazoles as APJ receptor agonists” (priority 2016, dated 2021)

Molecular target: human APJ receptor (Homo sapiens (Human), UniProt P35414)
Assay: biochemical
Type: biochemical
Details: [35S]GTPγS binding, CHO membranes expressing human APJ receptor; read-out: Activity hAPJ SPA EC50 IP
Description: The human APJ receptor was cloned by polymerase chain reaction and the gene encoding the receptor was subcloned in pFLAG-CMV™-3 expression vector (Sigma, Saint Louis, Mo. USA) in-house at Amgen. A GTPγS binding assay was performed on membranes prepared from CHO cells stably expressing human APJ receptor. The optimum experimental conditions for the concentrations of GDP, MgCl2, and NaCl in the assay buffer were initially determined. […] Incubation was at RT for 90 min and the microplate was read using a ViewLux™ ultra HTS Microplate Imager (PerkinElmer, Inc.).

Sequence of human APJ receptor (P35414 whole entry): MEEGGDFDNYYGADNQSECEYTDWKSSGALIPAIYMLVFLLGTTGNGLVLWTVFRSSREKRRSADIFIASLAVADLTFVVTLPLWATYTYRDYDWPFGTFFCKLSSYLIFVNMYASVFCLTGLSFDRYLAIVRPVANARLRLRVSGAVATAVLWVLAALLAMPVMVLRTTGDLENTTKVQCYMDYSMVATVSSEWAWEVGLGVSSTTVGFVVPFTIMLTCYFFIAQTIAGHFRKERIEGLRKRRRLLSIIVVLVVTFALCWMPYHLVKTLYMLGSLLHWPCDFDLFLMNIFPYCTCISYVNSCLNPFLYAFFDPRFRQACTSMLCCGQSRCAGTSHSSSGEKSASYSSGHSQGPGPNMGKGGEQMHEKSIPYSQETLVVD

Row | Compound | EC50 [nM]
1 | COc1cccc(OC)c1-n1c(NS(=O)(=O)[C@H](C)Cc2ncc(F)cn2)nnc1-c1conc1C (single isomer, unassigned) [Example 65.0, (R)-N-(4-(2,6-dimethoxyphenyl)-5-(3-methylisoxazol-4-yl)-4H-1,2,4-triazol-3-yl)-1-(5-fluoropyrimidin-2-yl)propane-2-sulfonamide or (S)-N-(4-(2,6-dimethoxyphenyl)-5-(3-methylisoxazol-4-yl)-4H-1,2,4-triazol-3-yl)-1-(5-fluoropyrimidin-2-yl)propane-2-sulfonamide] | 76
2 | CNC(=O)n1ccc(-c2nnc(NS(=O)(=O)[C@@H](C)Cc3ncc(F)cn3)n2-c2c(OC)cccc2OC)n1 (single isomer, unassigned) [Example 73.0, (R)-3-(4-(2,6-dimethoxyphenyl)-5-(2-(5-fluoropyrimidin-2-yl)-1-methylethylsulfonamido)-4H-1,2,4-triazol-3-yl)-N-methyl-1H-pyrazole-1-carboxamide or (S)-3-(4-(2,6-dimethoxyphenyl)-5-(2-(5-fluoropyrimidin-2-yl)-1-methylethylsulfonamido)-4H-1,2,4-triazol-3-yl)-N-methyl-1H-pyrazole-1-carboxamide] | 29
3 | CNC(=O)n1ccc(-c2nnc(NS(=O)(=O)[C@@H](C)Cc3ncc(F)cn3)n2-c2c(OC)cccc2OC)n1 (single isomer, unassigned) [Example 74.0] | 22
4 | COc1cccc(OC)c1-n1c(NS(=O)(=O)[C@H](C)Cc2ncc(F)cn2)nnc1-c1nc(C)cs1 (single isomer, unassigned) [Example 101.0, (R)-N-(4-(2,6-Dimethoxyphenyl)-5-(4-methylthiazol-2-yl)-4H-1,2,4-triazol-3-yl)-1-(5-fluoropyrimidin-2-yl)propane-2-sulfonamide or (S)-N-(4-(2,6-dimethoxyphenyl)-5-(4-methylthiazol-2-yl)-4H-1,2,4-triazol-3-yl)-1-(5-fluoropyrimidin-2-yl)propane-2-sulfonamide] | 0.7
5 | COc1cccc(OC)c1-n1c(NS(=O)(=O)[C@H](C)Cc2ncc(F)cn2)nnc1-c1nc(C)cs1 (single isomer, unassigned) [Example 102.0, (R)-N-(4-(2,6-Dimethoxyphenyl)-5-(4-methylthiazol-2-yl)-4H-1,2,4-triazol-3-yl)-1-(5-fluoropyrimidin-2-yl)propane-2-sulfonamide or (S)-N-(4-(2,6-dimethoxyphenyl)-5-(4-methylthiazol-2-yl)-4H-1,2,4-triazol-3-yl)-1-(5-fluoropyrimidin-2-yl)propane-2-sulfonamide] | 4.1
6 | CCc1csc(-c2nnc(NS(=O)(=O)[C@H](C)Cc3ncc(F)cn3)n2-c2c(OC)cccc2OC)n1 (single isomer, unassigned) [Example 104.0, (R)-N-(4-(2,6-dimethoxyphenyl)-5-(4-ethylthiazol-2-yl)-4H-1,2,4-triazol-3-yl)-1-(5-fluoropyrimidin-2-yl)propane-2-sulfonamide or (S)-N-(4-(2,6-dimethoxyphenyl)-5-(4-ethylthiazol-2-yl)-4H-1,2,4-triazol-3-yl)-1-(5-fluoropyrimidin-2-yl)propane-2-sulfonamide] | 4.6
7 | CCc1csc(-c2nnc(NS(=O)(=O)[C@H](C)Cc3ncc(F)cn3)n2-c2c(OC)cccc2OC)n1 (single isomer, unassigned) [Example 105.0, (R)-N-(4-(2,6-dimethoxyphenyl)-5-(4-ethylthiazol-2-yl)-4H-1,2,4-triazol-3-yl)-1-(5-fluoropyrimidin-2-yl)propane-2-sulfonamide or (S)-N-(4-(2,6-dimethoxyphenyl)-5-(4-ethylthiazol-2-yl)-4H-1,2,4-triazol-3-yl)-1-(5-fluoropyrimidin-2-yl)propane-2-sulfonamide] | 1.4
8 | COc1cccc(OC)c1-n1c(NS(=O)(=O)[C@H](C)[C@@H](OC)c2ncc(F)cn2)nnc1-c1ccn(C)n1 (single isomer, unassigned) [Example 117.0, (1S,2R)-N-(4-(2,6-dimethoxyphenyl)-5-(1-methyl-1H-pyrazol-3-yl)-4H-1,2,4-triazol-3-yl)-1-(5-fluoropyrimidin-2-yl)-1-methoxypropane-2-sulfonamide or (1R,2S)-N-(4-(2,6-dimethoxyphenyl)-5-(1-methyl-1H-pyrazol-3-yl)-4H-1,2,4-triazol-3-yl)-1-(5-fluoropyrimidin-2-yl)-1-methoxypropane-2-sulfonamide] | 0.69
9 | COc1cccc(OC)c1-n1c(NS(=O)(=O)[C@H](C)[C@@H](OC)c2ncc(F)cn2)nnc1-c1ccn(C)n1 (single isomer, unassigned) [Example 118.0, (1S,2R)-N-(4-(2,6-dimethoxyphenyl)-5-(1-methyl-1H-pyrazol-3-yl)-4H-1,2,4-triazol-3-yl)-1-(5-fluoropyrimidin-2-yl)-1-methoxypropane-2-sulfonamide or (1R,2S)-N-(4-(2,6-dimethoxyphenyl)-5-(1-methyl-1H-pyrazol-3-yl)-4H-1,2,4-triazol-3-yl)-1-(5-fluoropyrimidin-2-yl)-1-methoxypropane-2-sulfonamide] | 100
10 | COc1cccc(OC)c1-n1c(NS(=O)(=O)[C@@H](C)[C@@H](C)c2ncc(F)cn2)nnc1-c1nc(C)cs1 (single isomer, unassigned) [Example 119.0] | 4.6
11 | COc1cccc(OC)c1-n1c(NS(=O)(=O)[C@@H](C)[C@H](C)c2ncc(F)cn2)nnc1-c1nc(C)cs1 (single isomer, unassigned) [Example 120.0] | 0.17
12 | COc1cccc(OC)c1-n1c(NS(=O)(=O)[C@H](C)[C@@H](C)c2ncc(F)cn2)nnc1-c1nc(C)cs1 (single isomer, unassigned) [Example 121.0] | 12
13 | COc1cccc(OC)c1-n1c(NS(=O)(=O)[C@H](C)Cc2ncc(F)cn2)nnc1-c1nc(C(C)C)cs1 (single isomer, unassigned) [Example 157.0, (R)-N-(4-(2,6-dimethoxyphenyl)-5-(4-isopropylthiazol-2-yl)-4H-1,2,4-triazol-3-yl)-1-(5-fluoropyrimidin-2-yl)propane-2-sulfonamide or (S)-N-(4-(2,6-dimethoxyphenyl)-5-(4-isopropylthiazol-2-yl)-4H-1,2,4-triazol-3-yl)-1-(5-fluoropyrimidin-2-yl)propane-2-sulfonamide] | 58
14 | COc1cccc(OC)c1-n1c(NS(=O)(=O)[C@H](C)Cc2ncc(F)cn2)nnc1-c1nc(C(C)C)cs1 (single isomer, unassigned) [Example 158.0, (R)-N-(4-(2,6-dimethoxyphenyl)-5-(4-isopropylthiazol-2-yl)-4H-1,2,4-triazol-3-yl)-1-(5-fluoropyrimidin-2-yl)propane-2-sulfonamide or (S)-N-(4-(2,6-dimethoxyphenyl)-5-(4-isopropylthiazol-2-yl)-4H-1,2,4-triazol-3-yl)-1-(5-fluoropyrimidin-2-yl)propane-2-sulfonamide] | 4.1
15 | COc1cccc(OC)c1-n1c(NS(=O)(=O)[C@H](C)Cc2ncc(F)cn2)nnc1-c1nc(C2CC2)cs1 (single isomer, unassigned) [Example 159.0, (R)-N-(5-(4-cyclopropylthiazol-2-yl)-4-(2,6-dimethoxyphenyl)-4H-1,2,4-triazol-3-yl)-1-(5-fluoropyrimidin-2-yl)propane-2-sulfonamide or (S)-N-(5-(4-cyclopropylthiazol-2-yl)-4-(2,6-dimethoxyphenyl)-4H-1,2,4-triazol-3-yl)-1-(5-fluoropyrimidin-2-yl)propane-2-sulfonamide] | 0.61
